Measured values published in patent US11013236B2, “Pesticidal Flavobacterium strain and bioactive compositions metabolites and uses” (Marrone Bio Innovations, Inc., priority 2012, dated 2021).

Columns and labels:
M. hapla = test: In vitro 96-well plate bioassay of purified peaks of fraction 3; assay type: in vivo, Meloidogyne hapla; settings: 24 hour at 25° C.
Experimental: (§1) Once the purification of fraction 3 is complete and all of the desired peaks/compounds are collected as described above, each peak is tested in an in vitro 96-well plastic cell-culture plate extract bioassay in order to identify the peak/s that contain the desired active metabolite/s.
(§2) 15-20 nematodes in a […] water solution are exposed to […] of a 20 mg/ml peak concentrate (1.13 mg/ml total exposure) for a 24 hour period at 25° C. Once the incubation period is completed, results are recorded based on a visual grading of immotility of the J2s in each well treated with H492 purified peaks of H1 to H39, plus H29-A derived from fraction 3, each treatment is tested in four replicates. Three controls are included in each trial; one positive control (1% avid). and two negative controls (DMSO and water). Trial 1 (T1) was carried out using the method described above with M. hapla, trial 2 and 3 (T2 and T3) were carried out using the latter method with M. incognita (FIG. 22).

M. incognita [1] = test: as above; assay type: in vivo, Meloidogyne incognita; settings: 24 hour at 25° C.
Experimental: as §1, §2

[2] = tested on: nematode juveniles (J2) of M. incognita (Monsanto strain); test: Dose response % immotility for synthesized polyketide, 6-well plate immobility bioassay; assay type: in vivo, Meloidogyne incognita; settings: tested 0.14-1.69 mg/mL in DMSO; 24 h exposure, 24 h on water agar; FIG. 23
Experimental: The synthetic polyketide (MW 176) was tested at several doses (concentrations tested were 0.14, 0.28, 0.42, 0.56, 0.84, 1.13, 1.69 mg/mL of polyketide in DMSO) in the 6-well plate immobility bioassay to find the optimal dose of this compound needed in order to detect nematicidal activity. In this particular assay the nematode juveniles (J2) of M. incognita (Monsanto strain) were first exposed to the tested samples in 96-well plate: 50 μl of water containing approximately 300 J2 were mixed with 3 μl of polyketide sample or controls (avid (2%) as positive control or DMSO and water as negative controls, respectively. After 24 h incubation, 20 μl of J2 suspension from each well was transferred into the wells of 6-well plates filled with water agar (3 mL of 1% agar per each well). The plates were left open for 10-15 min to allow the solutions to dry out. Afterwards, circles were drawn around the J2 suspension and initial numbers of J2 inside the circles were counted under the stereomicroscope. The plates were incubated for another 24 h and the numbers of J2 that remained immotile (i.e. were still present inside the circles) were counted using stereomicroscope. The % of nematode immotility was expressed as: [(number of immotile nematodes after 24 h incubation/initial number of J2)*100%].

M. incognita [3] = test: Greenhouse cone test of polyketide 1, tomato (cv. UC82) as host; assay type: in vivo, Meloidogyne incognita; settings: compared to water control
Experimental: The nematicidal activity of polyketide 1 (MW 176 compound) against root-knot nematodes was further assessed in greenhouse in cone tests using M. incognita and tomato (cv. UC82) as a host. The tomato seeds were germinated in vermiculate and 3-week-old seedlings were transferred to the cones containing mixture of sand and top soil (1:1). Two weeks after transplanting, tomato plants were treated with the samples. […] Four different concentrations (100, 10, 1, & 0.1 μg/mL) of the polyketide prepared in 4% methanol (MeOH) were dosed as 10 mL of soil drench into each pot. Each treatment was tested in 5 replicates. Following the drench each pot was inoculated with 1000 nematode eggs suspended in 1 mL of water. The dosing of the product was repeated after two weeks. Three weeks later, the inoculation test was terminated and the following parameters were scored: number of galls/root, gall index and fresh top weight.

[4] = tested on: Avidovorax avenae subsp. citrulli; test: Antimicrobial agar disc assay; assay type: cell-based
Experimental: (§3) The pure 1-(4-hydroxyphenyl) pent-1-en-3-one (1) “polyketide MW 176” was tested against various microbial pathogens using agar disc assay.

Bacillus cereus = test: Antimicrobial agar disc assay; assay type: cell-based
Experimental: as §3

Erwinia amylovora = test: Antimicrobial agar disc assay; assay type: cell-based
Experimental: as §3

Xanthomonas campestris = test: Antimicrobial agar disc assay; assay type: cell-based
Experimental: as §3

nematodes (J2's) = test: SAR motility bioassay of synthetic analogues; assay type: in vivo; settings: 3 μL at 20 mg/ml into 50 μl with approximately 300 J2's, 24 hours, then 24 hour recovery on 1.5% water agar; average of 6 repetitions
Experimental: To quickly understand which part of the 1-(4-hydroxyphenyl) pent-1-en-3-one (1) molecule (polyketide) plays a crucial role on the nematicidal activity, a series of structural analogues were synthesized and evaluated using motility test. This bioassay serves to distinguish the differences in efficacy by measuring the recovery and the mobility of the nematodes after being exposed to any given compound with 6 repetitions per treatment. This bioassay involves the following procedure: 3 μL (at 20 mg/ml) of the sample are dispensed into 50 μl of approximately 300 J2's in a 96-well plastic cell-culture plate. After 24 hours, 100-150 of the treated J2's were transferred into 6-well plates that contain 1.5% water agar. After drying of the test sample on the agar, the initial drop was marked and initial counts of the J2's were carried out. After another 24 hour recovery period, the immobilization of the juveniles were measured by counting the number of J2's that moved from the initial circle and an average of the 6 repetitions were calculated to get the percent immobilization of each sample.

CCC(=O)/C=C/c1ccc(O)cc1 [Compound 1, 1-(4-hydroxyphenyl) pent-1-en-3-one]
Potency in in vitro assay (immotility of J2s) (M. hapla): confirmed | Potency in in vitro assay (immotility of J2s) (M. incognita [1]): confirmed | optimal range required for good nematicidal activity (% immotility) [2]: ≥ 0.5 mg/mL | gall index (M. incognita [3]; 0.1 mg/ml, 10 mL soil drench, 1st test): significantly reduced | gall index and galls per root (M. incognita [3]; 0.001 & 0.01 mg/ml, 10 mL soil drench, 1st test): significantly reduced | gall index (M. incognita [3]; all tested dilutions, 2nd test): significantly reduced | antimicrobial activity [4]: moderate activity | antimicrobial activity (Bacillus cereus): moderate activity | antimicrobial activity (Erwinia amylovora): potent activity | antimicrobial activity (Xanthomonas campestris): moderate activity

CC(=O)/C=C/c1ccccc1 [SAR-1, (E)-4-phenylbut-3-en-2-one]
Average % immobility (nematodes (J2's)): 99%

O=C(/C=C/c1ccccc1)c1ccccc1 [SAR-2, Benzalacetophenone]
Average % immobility (nematodes (J2's)): 4%

CC(=O)/C=C/c1ccccc1O [SAR-3, (E)-4-(2-hydroxyphenyl)but-3-en-2-one]
Average % immobility (nematodes (J2's)): 95%

CC(=O)/C=C/C=C/c1ccccc1 [SAR-4, (3E,5E)-6-phenylhexa-3,5-dien-2-one]
Average % immobility (nematodes (J2's)): 97%

O=C(/C=C/C=C/c1ccccc1)c1ccccc1 [SAR-5, (2E,4E)-1,5-diphenylpenta-2,4-dien-1-one]
Average % immobility (nematodes (J2's)): 98%

CCC(=O)/C=C/c1ccccc1O [SAR-6, (E)-1-(2-hydroxyphenyl)pent-1-en-3-one]
Average % immobility (nematodes (J2's)): 98%

O=C(/C=C/c1ccccc1O)c1ccccc1 [SAR-7, (E)-3-(2-hydroxyphenyl)-1-phenylprop-2-en-1-one]
Average % immobility (nematodes (J2's)): 99%

CC(C)CC(=O)/C=C/c1ccccc1O [SAR-8, (E)-1-(2-hydroxyphenyl)-5-methylhex-1-en-3-one]
Average % immobility (nematodes (J2's)): 100%

O=C(/C=C/c1ccc(O)cc1)c1ccccc1 [SAR-9, (E)-3-(4-hydroxyphenyl)-1-phenylprop-2-en-1-one]
Average % immobility (nematodes (J2's)): 100%

CC(C)CC(=O)/C=C/c1ccc(O)cc1 [SAR-10, (E)-1-(4-hydroxyphenyl)-5-methylhex-1-en-3-one]
Average % immobility (nematodes (J2's)): 96%

CC(=O)/C=C/c1cccc(O)c1 [SAR-11, (E)-4-(3-hydroxyphenyl)but-3-en-2-one]
Average % immobility (nematodes (J2's)): 99%

CC(=O)/C=C/c1ccccc1O [SAR-12, (E)-4-(2-hydroxyphenyl)but-3-en-2-one]
Average % immobility (nematodes (J2's)): 99%

O=Cc1ccccc1OCC(=O)c1ccccc1 [SAR-13, 2-(2′-phenyl-2-oxoethoxy) benzaldehyde]
Average % immobility (nematodes (J2's)): 74%

CC(=O)/C(C)=C/c1ccccc1O [SAR-14, (E)-4-(2-hydroxyphenyl)-3-methylbut-3-en-2-one]
Average % immobility (nematodes (J2's)): 97%

CC/C=C/C(=O)c1ccccc1 [SAR-15, (E)-1-phenylpent-2-en-1-one]
Average % immobility (nematodes (J2's)): 20%

CC/C=C\CC/C=C/C(C)=O [SAR-16, (3E,7Z)-deca-3,7-dien-2-one]
Average % immobility (nematodes (J2's)): 94%

O=C(/C=C/c1cccc(O)c1)/C=C/c1cccc(O)c1 [SAR-18, (1E,4E)-1,5-bis(3-hydroxyphenyl) penta-1,4-dien-3-one]
Average % immobility (nematodes (J2's)): 23%

O=C(/C=C/Cc1ccccc1)c1ccccc1 [SAR-19, (E)-1,4-diphenylbut-2-en-1-one]
Average % immobility (nematodes (J2's)): 64%

O=C(/C=C/Cc1ccccc1)c1ccc(O)cc1 [SAR-20, (E)-1-(4-hydroxyphenyl)-4-phenylbut-2-en-1-one]
Average % immobility (nematodes (J2's)): 28%

C/C(=C\c1cccc(O)c1)C(=O)/C=C/c1cccc(O)c1 [SAR-21, (1E,4E)-1,5-bis(3-hydroxyphenyl)-2-methylpenta-1,4-dien-3-one]
Average % immobility (nematodes (J2's)): 12%

O=C(/C=C/c1cccc(O)c1)c1ccccc1 [SAR-22, (E)-3-(3-hydroxyphenyl)-1-phenylprop-2-en-1-one]
Average % immobility (nematodes (J2's)): 70%

CCC(=O)/C=C/c1ccccc1 [SAR-23, (E)-1-phenylpent-1-en-3-one]
Average % immobility (nematodes (J2's)): 80%

CC(=O)/C(C)=C/c1ccc(O)cc1 [SAR-24, (E)-4-(4-hydroxyphenyl)-3-methylbut-3-en-2-one]
Average % immobility (nematodes (J2's)): 80%

CC(C)CC(=O)/C=C/c1ccccc1 [SAR-25, (E)-5-methyl-1-phenylhex-1-en-3-one]
Average % immobility (nematodes (J2's)): 79%

O=C(CBr)c1ccccc1 [SAR-26, 2-bromo-1-phenylethanone]
Average % immobility (nematodes (J2's)): 50%

CC(C)CC(=O)/C=C/c1cccc(O)c1 [SAR-27, (E)-1-(3-hydroxyphenyl)-5-methylhex-1-en-3-one]
Average % immobility (nematodes (J2's)): 78%

CC(=O)/C=C/c1ccc(O)cc1 [SAR-28, (E)-4-(4-hydroxyphenyl)but-3-en-2-one]
Average % immobility (nematodes (J2's)): 78%

O=Cc1cccc(O)c1 [SAR-29, 3-hydroxybenzaldehyde]
Average % immobility (nematodes (J2's)): 70%

O=Cc1ccc(O)cc1 [SAR-30, 4-hydroxybenzaldehyde]
Average % immobility (nematodes (J2's)): 58%

O=Cc1ccccc1O [SAR-31, 2-hydroxybenzaldehyde]
Average % immobility (nematodes (J2's)): 58%

O=Cc1ccccc1 [SAR-32, Benzaldehyde]
Average % immobility (nematodes (J2's)): 65%

CCCCCCCCC1CCC(=O)O1 (stereo not shown) [SAR-33, γ-dodecalactone]
Average % immobility (nematodes (J2's)): 63%

CCCCC1CCC(=O)O1 (stereo not shown) [SAR-34, γ-octalactone]
Average % immobility (nematodes (J2's)): 21%

CCCCCCC(C)=O [SAR-35, 2-octanone]
Average % immobility (nematodes (J2's)): 33%

CCCCCC(C)=O [SAR-36, 2-heptanone]
Average % immobility (nematodes (J2's)): 21%

CCCCCCCCCC(C)=O [SAR-37, 2-undecanone]
Average % immobility (nematodes (J2's)): 67%

CC/C=C\CCC=O [SAR-38, cis-4-heptenal]
Average % immobility (nematodes (J2's)): 21%

CC(=O)CC(C)C [SAR-39, 4-methyl-2-pentanone]
Average % immobility (nematodes (J2's)): 54%

CC(C)C=O [SAR-40, iso-butyraldehyde]
Average % immobility (nematodes (J2's)): 79%

CC(=O)CC(C)(C)O [SAR-41, 4-hydroxy-4-methylpentanone]
Average % immobility (nematodes (J2's)): 21%

COc1ccccc1C=O [SAR-42, o-anisaldehyde]
Average % immobility (nematodes (J2's)): 8%

CCC(C)=O [SAR-43, 2-butanone]
Average % immobility (nematodes (J2's)): 21%
